Legend:
MK2 [1] = molecular target: T1, MK2 (Homo sapiens, UniProt P49137); assay: MK2 degradation in human SW1353 cells (MSD, 24 h); assay type: cell-based; parameters: endogenous in cells; host or cells: SW-1353 (ATCC HTB-94); key to MK2 MSD SW1353 degradation 24 h GMean External Abs DC50: A (<0.001 μM); B (0.001-0.01 μM); C (0.01-0.1 μM); D (>0.1 μM); —: “-”=not tested or inactive; key to MK2 MSD SW 1353 24 h Dmax %: —: “-”=not tested or inactive; conditions: for Dmax: read-out: MK2 MSD SW 1353 24 h Dmax %; for DC50: read-out: MK2 MSD SW1353 degradation 24 h GMean External Abs DC50
Procedure: MK2 Degradation in Human SW1353 Cells
The human chondrocyte cancer cell line SW-1353 (ATCC(HTB-94)) was cultured in 96 well plates (Corning 3894) at a density of 200,000 cells per well in 100 microlitres in complete growth medium of Leibovitz's L-15 Medium (Gibco) pus 10% fetal Bovine Serum (Corning) and Penicillin/Streptomycin (SolarBio) at 37 degrees Celsius. A serial dilution of each compound (usually 3 to 5 fold serial dilutions up to 10 separate concentration points) was added to individual wells from a 10 millimolar stock solution, at a background concentration of 0.1% DMSO and the cells were shaken at 600 rpm for 5 minutes and then were cultured for 24 hours at 37 degrees Celsius. Separately, a custom MSD (MesoScaleDiscovery, L15XA-3) plate for detection of human MK2 was prepared by coating the plate with the commercial AbCam ab247272 reagent in 1×Phosphate Buffered Saline at 40 microlitres per well and incubated at 4 degrees Celsius overnight. The next day, the MSD plate was washed with 150 microlitres of Tween buffered saline, blocked with MSD blocking buffer (3% Blocker A from MSD), and washed again.
(§1) The cell plate was centrifuged at 3,200 g for 5 minutes and the supernatant was discarded and 100 microlitres of RIPA lysis buffer (containing proteinase inhibitors, Boston BioProducts BP-115D) was added and the plate was sealed and shaken on ice for 20 minutes. The plate was centrifuged as before and 70 microlitres of sample lysate was added to the MSD plates and they were shaken at room temperature for 1 hour at 600 rpm. The MSD plate was washed 3 times as before and then the primary MK2 detection antibody (Santa Cruz sc-100393) was added at a final concentration of 1 microgram per ml at 25 microlitres per well and shaken at room temperature for 1 hour at 600 rpm.
(§2) After 3 more washes, the secondary detection antibody (SULFO-Tag anti rabbit antibody R32AB-5) was added at a final concentration of 1 microgram per ml at 25 microlitres per well and shaken at room temperature for 1 hour at 600 rpm. After 3 more washes, the 1×MSD (diluted from 5× concentrate with water) reading buffer was added at 150 microlitres per well and read on the MSD instrument Meso Sector S 600.
(§3) The inhibition/degradation curves and DC50 values were plotted and calculated using XL Fit (version v5.3.1.3) using equation 201 and a 4 parameter logistic model whereby fit=(A+((B−A)/(1+((x/C)D))) where A is the Bottom and B is the Top and C is the IC50 and D is the slope and high C is the signal for the DMSO treated cells and Low C is the signal is the signal for the lysis buffer.

MK2 [2] = molecular target: T1, MK2; assay: MK2 degradation in human THP-1 monocytic cells (MSD, 24 h); assay type: cell-based; parameters: endogenous in cells; conditions: for Dmax: THP-1, THP-1 cells; for DC50: THP-1 cells, read-out: MK2 MSD THP-1 degradation 24 h GMean External Abs DC50
Procedure: MK2 Degradation in Human THP-1 Monoctyic Cells
The human monocytic cancer cell line THP-1 (ATCC (TIB-202)) was cultured in 96 well plates (Corning 3894) at a density of 200,000 cells per well in 100 microlitres in complete growth medium of RPMI 1640 (Gibco) pus 10% fetal Bovine Serum (Corning) and Penicillin/Streptomycin (SolarBio) at 37 degrees Celsius and 5% CO2. A serial dilution of each compound (usually 3 to 5 fold serial dilutions up to 10 separate concentration points) was added to individual wells from a 10 millimolar stock solution, at a background concentration of 0.1% DMSO and the cells were shaken at 600 rpm for 5 minutes and then were cultured for 24 hours at 37 degrees Celsius and 5% carbon dioxide. Separately, a custom MSD (MesoScaleDiscovery, L15XA-3) plate for detection of human MK2 was prepared by coating the plate with the commercial AbCam ab247272 reagent in 1×Phosphate Buffered Saline at 40 microlitres per well and incubated at 4 degrees Celsius overnight. The next day, the MSD plate was washed with 150 microlitres of Tween buffered saline, blocked with MSD blocking buffer (3% Blocker A from MSD), and washed again.
as §1, §2, §3

T1 sequence (P49137 whole entry): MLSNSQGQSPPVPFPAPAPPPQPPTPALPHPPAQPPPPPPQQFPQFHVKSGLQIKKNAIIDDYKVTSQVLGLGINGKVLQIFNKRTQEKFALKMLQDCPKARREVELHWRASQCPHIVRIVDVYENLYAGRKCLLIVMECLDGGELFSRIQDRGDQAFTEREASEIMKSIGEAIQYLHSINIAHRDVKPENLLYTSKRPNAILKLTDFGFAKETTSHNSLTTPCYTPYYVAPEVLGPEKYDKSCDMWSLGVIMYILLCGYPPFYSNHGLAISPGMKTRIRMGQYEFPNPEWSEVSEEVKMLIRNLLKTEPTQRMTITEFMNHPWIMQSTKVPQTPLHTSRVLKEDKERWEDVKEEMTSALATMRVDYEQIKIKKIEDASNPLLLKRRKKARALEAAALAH

Dmax (MK2 [1]) [%]	DC50 (MK2 [1]) [nM]	Dmax (MK2 [2]) [%]	DC50 (MK2 [2]) [nM]	MK2 MSD SW1353 degradation 24 h GMean External Abs DC50 (MK2 [1])	SMILES	MK2 MSD SW 1353 24 h Dmax % (MK2 [1])
> 75	1 to 10	> 75	< 1		C[C@@H]1CNc2c(sc3ccc4nc(-c5ccc(N6CCN(CC7CN(c8cccc9c8n(C)c(=O)n9C8CCC(=O)NC8=O)C7)CC6)cc5)ccc4c23)C(=O)N1 (stereo partly drawn) [Compound I-269]	
> 75	< 1	> 75	< 1		Cc1cc(N2CCC(CN3CCC(c4ccc5c(c4)n(C)c(=O)n5C4CCC(=O)NC4=O)CC3)CC2)ccc1-c1ccc2c(ccc3sc4c(c32)NC[C@@H](C)NC4=O)n1 (stereo partly drawn) [Compound I-291]	
> 75	1 to 10	> 75	< 1		C[C@@H]1CNc2c(sc3ccc4nc(-c5cncc(C6CCN(CCCCCCCCc7cccc8c7n(C)c(=O)n8C7CCC(=O)NC7=O)CC6)c5)ccc4c23)C(=O)N1 (stereo partly drawn) [Compound I-103]	
> 75	1 to 10	50 to 75	10 to 100		Cn1c(=O)n(C2CCC(=O)NC2=O)c2cccc(CCCN3CCN(c4ccc(-c5cc(-c6cc7c([nH]6)C6(CCCC6)CNC7=O)ccn5)cc4)CC3)c21 (stereo not drawn) [Compound I-191]	
< 50	> 100	< 50	> 100		C[C@@H]1CN(C)c2c(sc3ccc4nc(-c5cccc(N6CCC(CN7CCN(c8cccc9c(N%10CCC(=O)NC%10=O)cncc89)CC7)CC6)c5)ccc4c23)C(=O)N1 [Compound I-267]	
> 75	1 to 10	> 75	1 to 10		C[C@@H]1CNc2c(sc3ccc4nc(-c5ccc(N6CCN(CCC7CCN(c8cccc9c8n(C)c(=O)n9C8CCC(=O)NC8=O)CC7)CC6)cc5)ccc4c23)C(=O)N1 (stereo partly drawn) [Compound I-127]	
< 50	> 100	< 50	> 100		C[C@@H]1CNc2c(sc3ccc4nc(N5CCCN(CC6CCN(c7ccc8c(c7)n(C)c(=O)n8C7CCC(=O)NC7=O)CC6)CC5)ccc4c23)C(=O)N1 (stereo partly drawn) [Compound I-446]	
> 75	< 1	> 75	< 1		Cn1c(=O)n(C2CCC(=O)NC2=O)c2ccc(N3CCC(CN4CCN(c5ccc(-c6cc(-c7cc8c([nH]7)CCNC8=O)ccn6)c(F)c5)CC4)CC3)cc21 (stereo not drawn) [Compound I-226]	
> 75	< 1	> 75	< 1		Cn1c(=O)n(C2CCC(=O)NC2=O)c2cccc(N3CC(N4CCN(c5ccc(-c6cc(-c7cc8c([nH]7)C7(CC7)CNC8=O)ccn6)cc5)CC4)C3)c21 (stereo not drawn) [Compound I-419]	
< 50	> 100	< 50	> 100		CN1CC2(CNC(=O)c3c2[nH]c2c3CCc3cnc(-c4cc(N5CCN(CCCCc6cccc7c6n(C)c(=O)n7C6CCC(=O)NC6=O)CC5)ccc4F)cc3-2)C1 (stereo not drawn) [Compound I-155]	
> 75	< 1	> 75	< 1		C[C@@H]1Cc2[nH]c(-c3ccnc(-c4ccc(N5CCC(CN6CCC(c7ccc8c(c7)n(C)c(=O)n8C7CCC(=O)NC7=O)CC6)CC5)cc4)c3)cc2C(=O)N1 (stereo partly drawn) [Compound I-263]	
> 75	< 1	> 75	< 1		C[C@@H]1CNc2c(sc3ccc4nc(-c5ccc(N6CCN(CCCc7ccc8c(c7)n(C)c(=O)n8C7CCC(=O)NC7=O)CC6)nc5)ccc4c23)C(=O)N1 (stereo partly drawn) [Compound I-287]	
		> 75	1 to 10	—	C[C@@H]1CNc2c(sc3ccc4nc(N5CCN(CC6CCN(c7cccc8c7n(C)c(=O)n8C7CCC(=O)NC7=O)CC6)CC5)ccc4c23)C(=O)N1 (stereo partly drawn) [Compound I-196]	—
> 75	1 to 10	> 75	< 1		Cn1c(=O)n(C2CCC(=O)NC2=O)c2cccc(N3CCC(CCN4CCN(c5ccc(-c6cc(-c7cc8c([nH]7)CCNC8=O)ccn6)cc5)CC4)CC3)c21 (stereo not drawn) [Compound I-139]	
> 75	1 to 10	> 75	1 to 10		C[C@@H]1CNc2c(sc3ccc4nc(-c5ccc(N6CCN(CC7CCN(c8ccc(N9CCC(=O)NC9=O)cc8)CC7)CC6)nc5)ccc4c23)C(=O)N1 [Compound I-438]	
> 75	< 1	> 75	< 1		C[C@@H]1CNc2c(sc3ccc4nc(-c5ccc(N6CCN(CCCCCc7ccc8c(c7)n(C)c(=O)n8C7CCC(=O)NC7=O)CC6)cc5)ccc4c23)C(=O)N1 (stereo partly drawn) [Compound I-174]	
> 75	< 1	> 75	< 1		C[C@@H]1CNc2c(sc3ccc4nc(-c5cc(C#N)cc(N6CCN(CC7CCN(c8ccc9c(c8)n(C)c(=O)n9C8CCC(=O)NC8=O)CC7)CC6)c5)ccc4c23)C(=O)N1 (stereo partly drawn) [Compound I-240]	
> 75	10 to 100	> 75	1 to 10		Cc1ccc(NC(=O)c2cccc(C(F)(F)F)c2)cc1N1Cc2cnc(Nc3ccc(N4CCN(CCCCCC(=O)N[C@H](C(=O)N5C[C@H](O)C[C@H]5C(=O)N[C@@H](C)c5ccc(-c6scnc6C)cc5)C(C)(C)C)CC4)nc3)nc2N(C)C1=O [Compound I-462]	
> 75	< 1	> 75	< 1		C[C@@H]1CNc2c(sc3ccc4nc(-c5ccc(N6CCN(CC7CCN(c8cccc9c8n(C)c(=O)n9C8CCC(=O)NC8=O)CC7)CC6)nc5)ccc4c23)C(=O)N1 (stereo partly drawn) [Compound I-125]	
< 50	> 100	< 50	> 100		Cn1c(=O)n(C2CCC(=O)NC2=O)c2ccc(N3CCC(CN4CCN(c5cc(C#N)cc(-c6cc(-c7cc8c([nH]7)CCNC8=O)ccn6)c5)CC4)CC3)cc21 (stereo not drawn) [Compound I-225]	
> 75	10 to 100	> 75	10 to 100		O=C1CCN(c2cncc3c(N4CCN(CC5CCN(c6ccc(-c7cc(-c8cc9c([nH]8)C8(CC8)CNC9=O)ccn7)cc6)CC5)CC4)cccc23)C(=O)N1 [Compound I-212]	
< 50	> 100	< 50	> 100		C[C@@H]1CNc2c(sc3ccc4nc(N5CC6(CCN(C7CCN(c8ccc9c(c8)n(C)c(=O)n9C8CCC(=O)NC8=O)CC7)CC6)C5)ccc4c23)C(=O)N1 (stereo partly drawn) [Compound I-393]	
> 75	1 to 10	> 75	1 to 10		C[C@@H]1CNc2c(sc3ccc4nc(-c5ccc(N6CCN(CC7CCN(c8ccc9c(c8)CN(C8CCC(=O)NC8=O)C9=O)CC7)CC6)cc5)ccc4c23)C(=O)N1 (stereo partly drawn) [Compound I-302]	

SMILES	Dmax (MK2 [1]) [%]	DC50 (MK2 [1]) [nM]	Dmax (MK2 [2]) [%]	DC50 (MK2 [2]) [nM]	MK2 MSD SW1353 degradation 24 h GMean External Abs DC50 (MK2 [1])	MK2 MSD SW 1353 24 h Dmax % (MK2 [1])
Cn1c(=O)n(C2CCC(=O)NC2=O)c2cccc(CCCCCCCCN3CCC4(CC3)CNC(=O)c3c4[nH]c4c3CCc3cnc(-c5ccccc5F)cc3-4)c21 (stereo not drawn) [Compound I-309]		> 100	< 50	> 100		—

— US20230135894A1, “MK2 DEGRADERS AND USES THEREOF” (Kymera Therapeutics, Inc., priority 2021, published 2023)
